This note sets out measurements from article PMC11945486, “TAS1R2/TAS1R3 Single-Nucleotide Polymorphisms Affect Sweet Taste Receptor Activation by Sweeteners: The SWEET Project” (Nutrients, 2025).

The assay addresses T1, human TAS1R2-R838K (subunit alone) (Homo sapiens, UniProt Q8TE23, R838K).
T1 construct: expressed in transfected cells; host or cells: HEK293T stably expressing Gα16gust44
T1 sequence (Q8TE23 20-839 R838K): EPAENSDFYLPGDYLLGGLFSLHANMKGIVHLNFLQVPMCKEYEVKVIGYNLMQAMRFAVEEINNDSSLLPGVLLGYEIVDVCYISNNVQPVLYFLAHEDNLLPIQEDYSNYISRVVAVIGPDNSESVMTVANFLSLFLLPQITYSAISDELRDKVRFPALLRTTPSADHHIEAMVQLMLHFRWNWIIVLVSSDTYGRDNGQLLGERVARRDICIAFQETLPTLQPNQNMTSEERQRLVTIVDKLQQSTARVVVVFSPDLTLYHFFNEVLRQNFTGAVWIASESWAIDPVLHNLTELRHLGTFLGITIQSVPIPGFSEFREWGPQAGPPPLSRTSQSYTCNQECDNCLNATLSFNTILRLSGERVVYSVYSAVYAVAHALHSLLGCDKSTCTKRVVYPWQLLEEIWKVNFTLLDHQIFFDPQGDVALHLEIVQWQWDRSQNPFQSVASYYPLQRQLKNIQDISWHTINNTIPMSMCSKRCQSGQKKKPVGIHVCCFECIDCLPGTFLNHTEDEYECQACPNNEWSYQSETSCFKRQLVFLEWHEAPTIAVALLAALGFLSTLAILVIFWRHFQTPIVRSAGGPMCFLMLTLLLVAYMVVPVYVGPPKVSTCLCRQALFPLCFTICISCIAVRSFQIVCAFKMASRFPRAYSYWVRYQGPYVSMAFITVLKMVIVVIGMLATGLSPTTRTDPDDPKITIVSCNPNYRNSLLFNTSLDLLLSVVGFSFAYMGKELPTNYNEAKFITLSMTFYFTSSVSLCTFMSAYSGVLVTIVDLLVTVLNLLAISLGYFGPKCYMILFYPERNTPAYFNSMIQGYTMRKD
Put plainly: Calcium mobilisation assay, TAS1R2-R838K subunit alone. The format is cell-based. An excerpt:
The coding sequences for TAS1R2 and TAS1R3 were commercially synthesised, and the human codon was optimised for expression in human cells. The coding sequences of human TAS1R2 and TAS1R3 were subcloned and inserted into the mammalian expression vectors pcDNA6/myc-HisA and pcDNA4/myc-HisA (Invitrogen; Thermo Fisher Scientific; Illkirch, France) between the EcoRI and NotI restriction sites, generating the plasmids pcDNA6-TAS1R2 and pcDNA4-TAS1R3, respectively. To increase protein expression in mammalian cells, an upstream start codon was used, which was a sequence called MAX, corresponding to the QBI SP163 element also described in pcDNA4-HisMax (Invitrogen; Thermo Fisher Scientific; Illkirch, France). To measure the expression level of the receptor by immunohistochemistry, we used the FLAG sequence ([…]) in the C-terminal position, which encodes the FLAG tag epitope. […]
The HEK293T cells were kindly provided by Jay P. Slack (Givaudan Flavors Corporation; Cincinnati, OH, USA). […] The fluorescence intensity was measured for 90 s (excitation 488 nm, emission 510 nm) in an automated fluorometric FlexStation®3 Multi-Mode microplate reader (Molecular Devices; San Jose, CA, USA). […] The Ca^2+ changes were expressed as fractional changes in fluorescent light intensity: ΔF/F = (F − F0)/F0, where F was the fluorescent light intensity at each point, and F0 was the value of emitted fluorescent light prior to stimulus application. To calculate dose–response relationships, the changes in fluorescence upon stimulus application were averaged, mock-subtracted and baseline-corrected. […] The half-maximal effective concentrations (EC50 values) and maximal signal amplitudes were calculated using SigmaPlot software (version 15.0) (Systat Software; San Jose, CA, USA).
For in vitro calcium mobilisation assay performed on hTAS1R2-SNPs, hTAS1R3-SNPs and mTAS1R3-I60T, 6 to 7 concentrations were tested for each sweet compound, plus buffer alone. All concentration–receptor combinations were measured in duplicate, and each experiment was repeated at least 4 times (8 wells/concentration). […]

Consider `C=C(C)[C@@H]1CC=C(/C=N/O)CC1` [Perillartine, perillartine], for which the EC50 worked out at 92.4 ± 19.7 µM and the “R1 = Variant EC50/WT EC50” value was found to be 1.0. Further, the “Max ΔF/F0” value (maximal signal amplitude) was determined as 0.35 ± 0.03.
